Earlier results as cited in article PMC8602434 (Drugs in R&D, 2021).

Legend:
[1] = sc, dose of 33 µmol/kg; cited from earlier work
[2] = sc administration; cited from earlier work
[3] = tested on: MC1R; conditions: read-out: half maximal effective concentration (EC50); cited from earlier work

Q: For `CCCC(=O)C1(c2ccccc2)CCN(C(=O)[C@@H](Cc2ccc(OC)cc2)NC(=O)[C@@H](N)Cc2cncn2C)CC1` [BMS-470539], which Cmax [1] is on record?
A: 11 µM

Q: With bremelanotide as the compound, how does the tmax [2] read?
A: 0.5 to 1.0 h

Q: And the t½ [2]?
A: 1.9 to 2.7 h

Q: For “α-melanocyte-stimulating hormone [α-MSH]”, which EC50 [3] is on record?
A: 0.22 nM
